# Patent publication US10988459B2 (priority 2015, dated 2021)
# Biological target: human RIP1 kinase domain (2-375) (Homo sapiens (Human), UniProt Q13546)
# Experiment: biochemical
# Assay type: biochemical
# Conditions: Table 1; apparent Ki (Morrison tight-binding fit); 50 nM RIP1 kinase domain, 50 uM ATP, 2 hours incubation; read-out: RIP1 Ki
# How it was run: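 50 nM purified kinase domain from baculovirus-infected insect cells, incubated 2 h with compound in 50 mM Hepes pH 7.5, 30 mM MgCl2, 1 mM DTT, 50 uM ATP, 0.002% Brij-35, 0.5% DMSO. ADP formation read by Transcreener FP at 633 nm excitation. Ki^app fitted with the Morrison tight-binding equation.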
# human RIP1 kinase domain (2-375), sequence (Q13546 2-375): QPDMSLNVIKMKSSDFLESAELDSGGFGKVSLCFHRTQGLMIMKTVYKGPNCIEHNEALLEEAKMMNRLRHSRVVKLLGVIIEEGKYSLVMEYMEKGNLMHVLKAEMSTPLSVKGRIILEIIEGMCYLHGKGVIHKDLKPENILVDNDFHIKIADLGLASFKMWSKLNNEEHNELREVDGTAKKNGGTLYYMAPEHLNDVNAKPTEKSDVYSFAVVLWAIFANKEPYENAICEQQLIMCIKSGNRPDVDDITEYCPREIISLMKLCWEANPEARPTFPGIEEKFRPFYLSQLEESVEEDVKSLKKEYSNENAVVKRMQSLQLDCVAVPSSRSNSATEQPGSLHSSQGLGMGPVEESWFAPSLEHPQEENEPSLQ
row,Compound,Ki [nM]
1,"Cc1cc2n(n1)CC[C@H](NC(=O)c1nnc(Cc3ccccc3)[nH]1)C(=O)N2C [Example 77, (S)-5-benzyl-N-(2,4-dimethyl-5-oxo-5,6,7,8-tetrahydro-4H-pyrazolo[1,5-a][1,3]diazepin-6-yl)-4H-1,2,4-triazole-3-carboxamide]",58
2,"C[C@H]1CCc2noc(C(=O)N[C@H]3COc4ccccc4N(C)C3=O)c2C1 [Example 69, (S)-5-methyl-N-((S)-5-methyl-4-oxo-2,3,4,5-tetrahydrobenzo[b][1,4]oxazepin-3-yl)-4,5,6,7-tetrahydrobenzo[c]isoxazole-3-carboxamide]",84.5

# Same assay, conditions: Table 5; apparent Ki (Morrison tight-binding fit); 50 nM RIP1 kinase domain, 50 uM ATP, 2 hours incubation; read-out: Ki
row,Ki [nM],Compound
1,9,"CN1C(=O)[C@@H](NC(=O)c2cc3n(n2)CCC[C@H]3c2ccccc2F)COc2ccccc21 [Example 710, (4S)-4-(2-fluorophenyl)-N-[(3S)-5-methyl-4-oxo-2,3-dihydro-1,5-benzoxazepin-3-yl]-4,5,6,7-tetrahydropyrazolo[1,5-a]pyridine-2-carboxamide]"
2,168,COC1CN(CCc2cc3n(n2)CC[C@H](NC(=O)c2ncn(Cc4ccccc4)n2)C(=O)N3C)C1 [Example 757]

# Same assay, conditions: human RIP1 kinase domain (2-375), 50 uM ATP, 2 hours incubation, Transcreener ADP assay; read-out: RIP1 Ki
row,Compound,Ki [nM]
1,"CC1CCn2nnc(C(=O)N[C@H]3COc4ccccc4N(C)C3=O)c2C1 (stereo partly drawn) [Example 187, 5-methyl-N—((S)-5-methyl-4-oxo-2,3,4,5-tetrahydrobenzo[b][1,4]oxazepin-3-yl)-4,5,6,7-tetrahydro-[1,2,3]triazolo[1,5-a]pyridine-3-carboxamide]",210
2,"CN1C(=O)[C@@H](NC(=O)c2n[nH]c3ncc(C(F)(F)C(F)(F)F)cc23)COc2ccccc21 [Example 117, (S)—N-(5-methyl-4-oxo-2,3,4,5-tetrahydrobenzo[b][1,4]oxazepin-3-yl)-5-(perfluoroethyl)-1H-pyrazolo[3,4-b]pyridine-3-carboxamide]",5.6

# Now from value to compound:
row,Ki [nM],Compound
1,891,"CN1C(=O)[C@@H](NC(=O)c2nc3n(n2)[C@@H](c2ccccc2)CC3)CCn2nccc21 (single isomer, unassigned) [Example 125]"
2,381,"CN1C(=O)C(NC(=O)c2nnc(Cc3ccccc3)[nH]2)CCCn2nccc21 (stereo not drawn) [Example 93, 5-benzyl-N-(4-methyl-5-oxo-4,5,6,7,8,9-hexahydropyrazolo[1,5-a][1,3]diazocin-6-yl)-4H-1,2,4-triazole-3-carboxamide]"

# Same assay, conditions: human RIP1 kinase domain (2-375), Transcreener ADP assay, 50 uM ATP, 2 hours incubation; read-out: RIP1 Ki
row,Ki [nM],Compound
1,39.5,"Cc1nn2c(c1C)N(C)C(=O)[C@@H](NC(=O)c1ncn(Cc3ccccc3)n1)CC2 [Example 274, (S)-1-benzyl-N-(2,3,4-trimethyl-5-oxo-5,6,7,8-tetrahydro-4H-pyrazolo[1,5-a][1,3]diazepin-6-yl)-1H-1,2,4-triazole-3-carboxamide]"
2,50.9,"Cc1nn2c(c1C)N(C)C(=O)[C@@H](NC(=O)c1ncn(Cc3ccc(F)cc3F)n1)CC2 [Example 280, (S)-1-(2,4-difluorobenzyl)-N-(2,3,4-trimethyl-5-oxo-5,6,7,8-tetrahydro-4H-pyrazolo[1,5-a][1,3]diazepin-6-yl)-1H-1,2,4-triazole-3-carboxamide]"
3,38.7,"Cc1nn2c(c1C)N(C)C(=O)[C@@H](NC(=O)c1ncn(Cc3ccc(F)cc3)n1)CC2 [Example 281, (S)-1-(4-fluorobenzyl)-N-(2,3,4-trimethyl-5-oxo-5,6,7,8-tetrahydro-4H-pyrazolo[1,5-a][1, 3]diazepin-6-yl)-1H-1,2,4-triazole-3-carboxamide]"

# Same assay, conditions: read-out: RIP1 Ki
row,Compound,Ki [nM]
1,"CN1C(=O)[C@@H](NC(=O)c2nnc3ccc(C(F)(F)C(F)(F)F)nn23)COc2ccccc21 [Example 114, (S)—N-(5-methyl-4-oxo-2,3,4,5-tetrahydrobenzo[b][1,4]oxazepin-3-yl)-6-(perfluoroethyl)-[1,2,4]triazolo[4,3-b]pyridazine-3-carboxamide]",68.3

# Same assay, conditions: scale-up batches (Examples A-C); apparent Ki (Morrison tight-binding fit); 50 nM RIP1 kinase domain, 50 uM ATP; read-out: Ki
row,Compound,Ki [nM]
1,CN1C(=O)[C@@H](NC(=O)c2ncn(Cc3ccccc3)n2)CCn2nccc21 [Example B],13

# Same assay, conditions: tight-binding apparent inhibition constant; human RIP1 kinase domain (2-375) 50 nM, 50 uM ATP, 2 hours; read-out: Ki
row,Compound,Ki [nM]
1,"Cc1cc2n(n1)CC[C@H](NC(=O)c1nc3n(n1)CCC31CCOCC1)C(=O)N2C [Example 635, N-[(6S)-2,4-dimethyl-5-oxo-7,8-dihydro-6H-pyrazolo[1,5-a][1,3]diazepin-6-yl]spiro[5,6-dihydropyrrolo[1,2-b][1,2,4]triazole-7,4′-tetrahydropyran]-2-carboxamide]",7300
2,"CN1C(=O)[C@@H](NC(=O)c2ncc3cnn(C4CCCOC4)c3n2)COc2ccccc21 (stereo partly drawn) [Example 563, N-[(3S)-5-methyl-4-oxo-2,3-dihydro-1,5-benzoxazepin-3-yl]-1-tetrahydropyran-3-yl-pyrazolo[3,4-d]pyrimidine-6-carboxamide]",54
3,"Cc1cc2n(n1)CC[C@H](NC(=O)c1ncn(Cc3cccnc3C)n1)C(=O)N2C [Example 664, 1-[(2-methyl-3-pyridyl)methyl]-N-(6S)-2,4-dimethyl-5-oxo-7,8-dihydro-6H-pyrazolo[1,5-a][1,3]diazepin-6-yl-1,2,4-triazole-3-carboxamide]",730
4,"CC(C)[C@@H]1CCCc2nc(C(=O)N[C@H]3CCc4cc(F)cc(F)c4NC3=O)nn21 (single isomer, unassigned) [Example 436]",20.3
5,"Cc1ncn2c1N(C)C(=O)[C@H](NC(=O)c1ncn(Cc3c(F)cccc3F)n1)CC2 [Example 581, 1-[(2,6-difluorophenyl)methyl]-N-(3R)-1,9-dimethyl-2-oxo-4,5-dihydro-3H-imidazo[1,5-a][1,3]diazepin-3-yl-1,2,4-triazole-3-carboxamide]",47
6,"O=C(N[C@H]1COc2cc(F)cc(F)c2NC1=O)c1nc2n(n1)[C@H](C(F)(F)F)CCC2 (single isomer, unassigned) [Example 432]",12.7
7,"Cc1cc2n(n1)CC[C@H](NC(=O)c1ncn(C[C@H]3C[C@H](C)C3)n1)C(=O)N2C [Example 498, N—((S)-2,4-dimethyl-5-oxo-5,6,7,8-tetrahydro-4H-pyrazolo[1,5-a][1,3]diazepin-6-yl)-1-(((1S,3R)-3-methylcyclobutyl)methyl)-1H-1,2,4-triazole-3-carboxamide]",400

# More lines, now with the values ahead:
row,Ki [nM],Compound
1,23,"CC[C@H]1C[C@H](Cn2cnc(C(=O)N[C@H]3CCn4nccc4N(C)C3=O)n2)C1 [Example 503, N—((S)-4-methyl-5-oxo-5,6,7,8-tetrahydro-4H-pyrazolo[1,5-a][1,3]diazepin-6-yl)-1-(((1S,3 S)-3-ethylcyclobutyl)methyl)-1H-1,2,4-triazole-3-carboxamide]"
2,100,"CN1C(=O)C(NC(=O)c2ncn(Cc3ccccc3)n2)CCn2nc(C(C)(F)F)cc21 (racemic) [Example 371, 1-benzyl-N-[2-(1,1-difluoroethyl)-4-methyl-5-oxo-7,8-dihydro-6H-pyrazolo[1,5-a][1,3]diazepin-6-yl]-1,2,4-triazole-3-carboxamide]"
3,40,"Cc1ncc2n1CC[C@@H](NC(=O)c1ncn(Cc3ccccc3F)n1)C(=O)N2C [Example 576, 1-[(2-fluorophenyl)methyl]-N-(3R)-1,7-dimethyl-2-oxo-4,5-dihydro-3H-imidazo[1,5-a][1, 3]diazepin-3-yl-1,2,4-triazole-3-carboxamide]"
4,70,"CN1C(=O)[C@@H](NC(=O)c2ncc3c(n2)C2(CCCC2)OC3)CCn2nccc21 [Example 565, N-[(6S)-4-methyl-5-oxo-7,8-dihydro-6H-pyrazolo[1,5-a][1,3]diazepin-6-yl]spiro[5H-furo [3,4-d]pyrimidine-7,1′-cyclopentane]-2-carboxamide]"
